Some test systems named below: Pseudomonas aeruginosa; Candida albicans; Acinetobacter baumannii; Staphylococcus aureus; Escherichia coli; Klebsiella pneumoniae; Sporothrix schenckii; Cryptococcus neoformans.
What all share (assay): ≥ marks a high value that may be exact or a test limit, other limits are often not marked, values filed in µg/mL are converted to µM
The test system of assay [1] is Streptococcus sobrinus ATCC 6715.
Assay [2] deals with Streptococcus mutans UA159.
Assay [3] relates to Streptococcus sanguinis ATCC 10556.
The test system of assay [4] is Klebsiella pneumoniae ATCC BAA-1705.
Assay [5] concerns Klebsiella pneumoniae ATCC 33495.
Assay [6] relates to Acinetobacter baumannii ATCC 9955.
Assay [7] relates to Escherichia coli ATCC 51659.
Assay [8] concerns Pseudomonas aeruginosa ATCC 27853.
The test system of assay [9] is Enterococcus faecalis ATCC 51299.
The test system of assay [10] is Enterococcus faecalis ATCC 22192.
Assay [11] deals with Staphylococcus epidermidis.
Assay [12] concerns Klebsiella pneumoniae ATCC 13883.
In assay [13] the test system is Escherichia coli ATCC 25922.
Assay [14] relates to Candida albicans ATCC 10231.
Assay [15] concerns Escherichia coli ATCC 4157.
Assay [16] relates to Pseudomonas aeruginosa ATCC 9027.
Assay [17] concerns Staphylococcus aureus ATCC 33592.
The subject of assay [18] is Staphylococcus aureus ATCC 25923.
Assay [19] concerns Acinetobacter baumannii ATCC BAA-1794.
The test system of assay [20] is Pseudomonas aeruginosa ATCC BAA-2110.
In assay [21] the test system is Staphylococcus aureus ATCC 29213.
Assay [22] deals with Pseudomonas aeruginosa PAO1.
For assay [23], the system named is Staphylococcus aureus USA 300 LAC.
Assay [24] has as its system Staphylococcus aureus USA 300.
Assay [25] concerns Bacillus subtilis KCTC 3068.
The test system of assay [26] is Salmonella typhimurium CMCC 50013.
For assay [27], the system named is Klebsiella pneumoniae ATCC 27736.
The test system of assay [28] is Escherichia coli ATCC 9637.
Assay [29] concerns Staphylococcus aureus ATCC BAA-44.
Assay [30] has as its system Staphylococcus aureus ATCC 700698.
Assay [31] concerns Bacillus subtilis ATCC 6633.
The subject of assay [32] is Candida parapsilosis ATCC 22019.
The test system of assay [33] is Pseudomonas aeruginosa ATCC BAA-427.
Assay [34] concerns Staphylococcus aureus ATCC 700699.

In brackets after ≈: the same amount, converted by molar mass.

In the case of `NCCCC[C@H](NC(=O)CNC(=O)[C@H](CCCCN)NC(=O)[C@H](CCCCN)NC(=O)[C@H](Cc1ccccc1)NC(=O)[C@H](Cc1ccccc1)NC(=O)[C@H](CCCCN)NC(=O)[C@H](CCCCN)NC(=O)[C@H](Cc1ccccc1)NC(=O)[C@H](Cc1ccccc1)NC(=O)[C@H](CCCCN)NC(=O)CNC(=O)[C@@H](N)Cc1c[nH]c2ccccc12)C(=O)O` [WGKFFKKFFKKGK], the values for the MIC in [1], in [2] and in assay [3] were at least 38.2 µM, at least 38.2 µM and at least 153 µM, respectively.

As for `CC[C@H](C)[C@H](NC(=O)[C@H](CCCCN)NC(=O)[C@H](CCCN=C(N)N)NC(=O)[C@H](CCCN=C(N)N)NC(=O)[C@H](CC(C)C)NC(=O)[C@H](CCCCN)NC(=O)[C@H](CCCCN)NC(=O)[C@H](Cc1ccccc1)NC(=O)[C@H](CC(C)C)NC(=O)CN)C(=O)N[C@@H](CCCCN)C(=O)N[C@@H](CCCCN)C(=O)NCC(=O)N[C@@H](Cc1ccccc1)C(=O)N[C@@H](CCCCN)C(=O)N[C@@H](CCCCN)C(=O)N[C@H](C(=O)N[C@@H](Cc1ccccc1)C(=O)N[C@@H](CCCCN)C(=O)N[C@@H](CCCN=C(N)N)C(=O)N[C@@H](CC(C)C)C(=O)O)[C@@H](C)CC` [GLFKKLRRKIKKGFKKIFKRL], the minimum inhibitory concentration (MIC) was 10.6 µM (≈ 28 µg/mL) in assay [4]; 1.97 µM (≈ 5.2 µg/mL) in [5]; 8.59 µM (≈ 22.6 µg/mL) with Pseudomonas aeruginosa; 15.9 µM (≈ 42 µg/mL) in assay [6]; above 48.6 µM in the assay with Candida albicans; at least 53.2 µM in assay [7]. For the same molecule, the MIC came to 24.3 µM (≈ 64 µg/mL) in [8]; 15.9 µM (≈ 42 µg/mL) in assay [9]; 15.9 µM (≈ 42 µg/mL) in assay [10]; 12.2 µM (≈ 32 µg/mL) in the assay on Acinetobacter baumannii; 24.3 µM (≈ 64 µg/mL) in [11]; 24.3 µM (≈ 64 µg/mL) against Staphylococcus aureus. For the same molecule, the MIC in assay [12] was 24.3 µM (≈ 64 µg/mL); in assay [13] it was 12.2 µM (≈ 32 µg/mL); in assay [14] it was above 48.6 µM; in [15] it was 7.97 µM (≈ 21 µg/mL); in assay [16] it was 3.8 µM (≈ 10 µg/mL); in [17], 10.6 µM (≈ 28 µg/mL). Moreover, the minimum inhibitory concentration (MIC) with Escherichia coli was 34.4 µM (≈ 90.5 µg/mL); in assay [18], 10.6 µM (≈ 28 µg/mL); in assay [19], 3.8 µM (≈ 10 µg/mL); in assay [20], 15.9 µM (≈ 42 µg/mL); in assay [21], 48.6 µM (≈ 128 µg/mL); against Klebsiella pneumoniae it was 48.6 µM (≈ 128 µg/mL).

For the molecule `CC[C@H](C)[C@H](NC(=O)[C@H](CCCN=C(N)N)NC(=O)[C@H](CCCN=C(N)N)NC(=O)[C@H](CC(C)C)NC(=O)[C@H](Cc1c[nH]c2ccccc12)NC(=O)[C@H](CCCN=C(N)N)NC(=O)[C@@H](N)Cc1c[nH]c2ccccc12)C(=O)N[C@@H](Cc1c[nH]c2ccccc12)C(N)=O` [WRWLRRIW], the MIC in assay [22] was determined as 6.2 µM (≈ 7.88 µg/mL); in assay [12], 25 µM (≈ 31.8 µg/mL); in assay [13], 25 µM (≈ 31.8 µg/mL); in assay [23], 6.2 µM (≈ 7.88 µg/mL); in [24], 6.2 µM (≈ 7.88 µg/mL).

`NCCCC[C@H](NC(=O)[C@H](CCCN=C(N)N)NC(=O)CNC(=O)[C@@H](N)Cc1ccc(O)cc1)C(=O)N[C@@H](CCCCN)C(=O)N[C@@H](CCCN=C(N)N)C(=O)N[C@@H](CCCN=C(N)N)C(=O)N[C@@H](CCC(N)=O)C(=O)N[C@@H](CCCN=C(N)N)C(=O)N[C@@H](CCCN=C(N)N)C(=O)N[C@@H](CCCN=C(N)N)C(=O)O` [YGRKKRRQRRR]: the MIC in [25] was determined as 26.4 µM (≈ 41.2 µg/mL); in [26] it was 29 µM (≈ 45.2 µg/mL); in assay [13], 15.5 µM (≈ 24.1 µg/mL); in assay [21] it was 16.6 µM (≈ 25.9 µg/mL).

For `CC[C@H](C)[C@H](NC(=O)[C@H](C)NC(=O)[C@H](CCCCN)NC(=O)CNC(=O)[C@H](C)NC(=O)[C@H](Cc1cnc[nH]1)NC(=O)[C@@H](NC(=O)[C@H](C)NC(=O)[C@@H]1CCCN1C(=O)[C@H](CCCCN)NC(=O)[C@@H](NC(=O)[C@H](CC(C)C)NC(=O)[C@H](Cc1c[nH]c2ccccc12)NC(=O)CNC(=O)[C@H](Cc1ccccc1)NC(=O)[C@@H](N)Cc1ccccc1)[C@@H](C)CC)[C@@H](C)CC)C(=O)N[C@@H](Cc1cnc[nH]1)C(=O)NCC(=O)N[C@@H](CC(C)C)C(=O)N[C@H](C(=O)N[C@@H](Cc1cnc[nH]1)C(=O)N[C@@H](CCCN=C(N)N)C(=O)N[C@@H](CCCN=C(N)N)C(=O)N[C@@H](CCCN=C(N)N)C(=O)N[C@@H](Cc1cnc[nH]1)C(=O)O)[C@@H](C)CC` [FFGWLIKPAIHAGKAIHGLIHRRRH], the MIC in assay [27] stood at 3.3 µM (≈ 9.68 µg/mL); in assay [28] it was 3.3 µM (≈ 9.68 µg/mL); in assay [29] it was 1.6 µM (≈ 4.69 µg/mL); in [30], 1.6 µM (≈ 4.69 µg/mL); in assay [31] it was 3 µM (≈ 8.8 µg/mL); in [32] it was 6.8 µM (≈ 19.9 µg/mL). For the same molecule, the MIC in assay [14] amounted to 3 µM (≈ 8.8 µg/mL); with Sporothrix schenckii, 13.6 µM (≈ 39.9 µg/mL); in [33] it was 6.8 µM (≈ 19.9 µg/mL); in [17], 0.8 µM (≈ 2.35 µg/mL); with Cryptococcus neoformans it was 6.8 µM (≈ 19.9 µg/mL); in assay [18], 3 µM (≈ 8.8 µg/mL). Moreover, the minimum inhibitory concentration (MIC) in assay [21] and in [34] was 1.6 µM (≈ 4.69 µg/mL) each time.

(Values after DBAASP.)
